# Data as given in US11213579B2, “Vaccines with enhanced immunogenicity, low allergenicity and reactogenicity” (priority 2018, dated 2022).
# Tests used:
# P. aeruginosa 6616 = experiment: Photodynamic inactivation of Pseudomonas aeruginosa, re-seeding on MHA to control inactivation; format: cell-based; conditions: initial dose 10 lg CFU/ml, 5 min, 500 μV/ml
# [1] = system: Newcastle disease virus (strain 2M); format: cell-based
# [2] = photosensitizer 1 nM/L, 320 nm for flavins, 560 nm for phenothiazines and porphyrins
# [3] = photosensitizer 5 nM/L, 320 nm for flavins, 560 nm for phenothiazines and porphyrins
# [4] = photosensitizer 10 nM/L, 320 nm for flavins, 560 nm for phenothiazines and porphyrins
# [5] = photosensitizer 20 nM/L, 320 nm for flavins, 560 nm for phenothiazines and porphyrins
# [6] = photosensitizer 40 nM/L, 320 nm for flavins, 560 nm for phenothiazines and porphyrins
# [7] = photosensitizer 80 nM/L, 320 nm for flavins, 560 nm for phenothiazines and porphyrins
# [8] = photosensitizer 160 nM/L, 320 nm for flavins, 560 nm for phenothiazines and porphyrins
# [9] = photosensitizer 320 nM/L, 320 nm for flavins, 560 nm for phenothiazines and porphyrins
# [10] = photosensitizer 640 nM/L, 320 nm for flavins, 560 nm for phenothiazines and porphyrins
# [11] = wavelength 180 nm, photoinactivator 40 μM/L
# [12] = wavelength 220 nm, photoinactivator 40 μM/L
# [13] = wavelength 260 nm, photoinactivator 40 μM/L
# [14] = wavelength 320 nm, photoinactivator 40 μM/L
# [15] = wavelength 360 nm, photoinactivator 40 μM/L
# [16] = wavelength 400 nm, photoinactivator 40 μM/L
# [17] = wavelength 440 nm, photoinactivator 40 μM/L
# [18] = wavelength 480 nm, photoinactivator 40 μM/L
# [19] = wavelength 520 nm, photoinactivator 40 μM/L
# [20] = wavelength 560 nm, photoinactivator 40 μM/L
# [21] = wavelength 600 nm, photoinactivator 40 μM/L
# [22] = wavelength 640 nm, photoinactivator 40 μM/L
# [23] = wavelength 680 nm, photoinactivator 40 μM/L
# [24] = wavelength 720 nm, photoinactivator 40 μM/L
# [25] = photosensitizer 1280 nM/L, 320 nm for flavins, 560 nm for phenothiazines and porphyrins
Molecule,lg CFU/ml after treatment (P. aeruginosa 6616; [2]) [lg CFU/ml],lg CFU/ml after treatment (P. aeruginosa 6616; [3]) [lg CFU/ml],lg CFU/ml after treatment (P. aeruginosa 6616; [4]) [lg CFU/ml],lg CFU/ml after treatment (P. aeruginosa 6616; [5]) [lg CFU/ml],lg CFU/ml after treatment (P. aeruginosa 6616; [6]) [lg CFU/ml],lg CFU/ml after treatment (P. aeruginosa 6616; [7]) [lg CFU/ml],lg CFU/ml after treatment (P. aeruginosa 6616; [8]) [lg CFU/ml],lg CFU/ml after treatment (P. aeruginosa 6616; [9]) [lg CFU/ml],lg CFU/ml after treatment (P. aeruginosa 6616; [10]) [lg CFU/ml],lg CFU/ml after treatment (P. aeruginosa 6616; [11]) [lg CFU/ml],lg CFU/ml after treatment (P. aeruginosa 6616; [12]) [lg CFU/ml],lg CFU/ml after treatment (P. aeruginosa 6616; [13]) [lg CFU/ml],lg CFU/ml after treatment (P. aeruginosa 6616; [14]) [lg CFU/ml],lg CFU/ml after treatment (P. aeruginosa 6616; [15]) [lg CFU/ml],lg CFU/ml after treatment (P. aeruginosa 6616; [16]) [lg CFU/ml],lg CFU/ml after treatment (P. aeruginosa 6616; [17]) [lg CFU/ml],lg CFU/ml after treatment (P. aeruginosa 6616; [18]) [lg CFU/ml],lg CFU/ml after treatment (P. aeruginosa 6616; [19]) [lg CFU/ml],lg CFU/ml after treatment (P. aeruginosa 6616; [20]) [lg CFU/ml],lg CFU/ml after treatment (P. aeruginosa 6616; [21]) [lg CFU/ml],other results
"C=Cc1c(C)c2cc3nc(c4c5[n-]c(cc6nc(cc1[n-]2)C(C)=C6CC)c(C)c5C(=O)[C@@H]4C(=O)OC)[C@@H](CCC(=O)OC/C=C(\C)CCC[C@H](C)CCC[C@H](C)CCCC(C)C)[C@@H]3C.[Mg+2] [Chlorophyll alpha (on TWEEN-80), Chlorophyll alpha]",2,2,1,1,0,0,0,0,0,9,9,10,10,10,9,9,6,7,0,0,lg CFU/ml after treatment (P. aeruginosa 6616; [22]): 4 lg CFU/ml; lg CFU/ml after treatment (P. aeruginosa 6616; [23]): 6 lg CFU/ml; lg CFU/ml after treatment (P. aeruginosa 6616; [24]): 9 lg CFU/ml
Cc1cc(=[N+](C)C)cc2sc3cc(N(C)C)cc(C)c3nc1-2.[Cl-] [Dimethylmethylene blue],2,1,1,1,0,0,0,0,0,–,–,–,–,–,–,–,–,–,–,–,lg CFU/ml after treatment (P. aeruginosa 6616; [25]): 1 lg CFU/ml
C=CC1=C(C)c2cc3[n-]c(cc4[n-]c(cc5nc(cc1n2)C(C)=C5C=C)c(C)c4CCC(=O)O)c(CCC(=O)O)c3C.[Fe+2] [Heme],3,2,2,1,0,0,0,0,0,–,–,–,–,–,–,–,–,–,–,–,–
CN(C)c1ccc2nc3ccc(=[N+](C)C)cc-3sc2c1 [Methylene blue],6,2,1,1,0,0,0,0,0,10,9,8,9,9,9,9,7,4,3,3,lg CFU/ml after treatment (P. aeruginosa 6616; [25]): 2 lg CFU/ml; lg CFU/ml after treatment (P. aeruginosa 6616; [22]): 0 lg CFU/ml; lg CFU/ml after treatment (P. aeruginosa 6616; [23]): 0 lg CFU/ml; lg CFU/ml after treatment (P. aeruginosa 6616; [24]): 0 lg CFU/ml
Cc1cc2nc3c(=O)[nH]c(=O)nc-3n(C[C@H](O)[C@H](O)[C@H](O)COP(=O)(O)OP(=O)(O)OC[C@H]3O[C@@H](n4cnc5c(N)ncnc54)[C@H](O)[C@@H]3O)c2cc1C [Riboflavin dinucleotide],3,0,0,0,0,0,0,0,0,–,–,–,–,–,–,–,–,–,–,–,–
Cc1cc2nc3c(=O)[nH]c(=O)nc-3n(C[C@H](O)[C@H](O)[C@H](O)COP(=O)(O)O)c2cc1C [Riboflavin mononucleotide],4,1,0,0,0,0,0,0,0,–,–,–,–,–,–,–,–,–,–,–,–
Cc1cc2nc3c(=O)[nH]c(=O)nc-3n(C[C@H](O)[C@H](O)[C@H](O)CO)c2cc1C [Riboflavin],6,2,1,0,0,0,0,0,0,0,2,1,0,0,0,0,0,9,8,9,spectral region of highest inactivation efficiency [1]: 180-390 nm; lg CFU/ml after treatment (P. aeruginosa 6616; [22]): 9 lg CFU/ml; lg CFU/ml after treatment (P. aeruginosa 6616; [23]): 7 lg CFU/ml; lg CFU/ml after treatment (P. aeruginosa 6616; [24]): 6 lg CFU/ml
Cc1cc2nc3ccc(N(C)C)cc3[s+]c2cc1N.[Cl-] [Toluidine Blue],6,2,1,1,0,0,0,0,0,–,–,–,–,–,–,–,–,–,–,–,lg CFU/ml after treatment (P. aeruginosa 6616; [25]): 2 lg CFU/ml
Cyanocobalamin,6,5,4,4,4,2,3,2,0,–,–,–,–,–,–,–,–,–,–,–,–
